Columns and labels:
[1] = tested on: a variety of crops and weed species; test: Pre- and post-emergence herbicide tests, overall assessment of TABLES III-VI; type: in vivo; conditions: from data of TABLES III-VI
Description: (§1) All crop and weed species were planted individually in 3" plastic pots containing potting soil. Four seeds each of corn, cotton, and snapbeans were seeded to a depth equal to the diameter of the seed. All other species were surface seeded and sprinkled with screened soil in an amount sufficient to cover the seed. Immediately after planting, all pots were watered by sub-irrigation in greenhouse trays. Pots for the pre-emergence phase were seeded one day before treatment.
(§2) Planting dates for the post-emergence phase were varied so that all seedlings would reach the desired stage of development simultaneously. The proper stage of seedling development for treatment in the post-emergence phase is as follows:
(§3) Compounds were tested at rates of application equivalent to 8 lbs. of actual compound per acre in a spray volume of 38 gallons per acre. Spray hood constants required to deliver the above volume are as follows:
(§4) Two weeks after treatment, pre- and post-emergence injury or control was visually rated, and the results were as shown in the following tables. Pre-emergence data are provided in TABLE III and post-emergence data are provided in TABLE IV, for compounds having the formula illustrated in TABLE I. Correspondingly, pre-emergence and post-emergence data, respectively, are set forth in TABLES V AND VI, for compounds having the formula illustrated in TABLE II.
Typical of such compounds are: 1, 2, 5, 26, 36, and 37.

Crabgrass (CG) [2] = test: Post-emergence herbicide test, crabgrass; type: in vivo, Digitaria sanguinalis; conditions: two weeks
Description: (§5) Crabgrass (CG)--Digitaria sanguinalis
as §1, §2
(§6) Spray hood constants required to deliver the above volume are as follows:
(§7) Formulations for spray applications were prepared in 50 ml volumes with the following three components: […]
(§8) Spray applications were made in a hood containing a removable belt and fixed spray nozzle. For passage through the spray hood, one pot of each specie (pre-emergence phase) was placed on the rear half of the flat. Treatments were removed to the greenhouse after spraying. Watering during the observation period was done only by sub-irrigation.
as §4

Cotton (CT) [3] = test: Pre-emergence herbicide test, cotton; type: in vivo, Gossypium hirsutum var. DPL smooth leaf; conditions: Gossypium hirsutum, pre-emergence, 336 h, 4 lb/acre, two weeks
Description: (§9) Cotton (CT)--Gossypium hirsutum var. DPL smooth leaf
as §1, §3
(§10) Formulations for spray applications were prepared in 50 ml volumes with the following three components:
(§11) Formulations for the 4 lbs/acre rate were prepared by adjusting the amount of active ingredient accordingly.
as §8, §4

Corn (CN) = test: Post-emergence herbicide test, corn; type: in vivo, Zea mays; conditions: Zea mays, post-emergence, 336 h, 4 lb/acre, two weeks
Description: as §1, §2, §3, §10, §11, §8, §4

Bean (BN) = test: Post-emergence herbicide test, bean; type: in vivo, Phaseolus vulgaris var. Black Valentine; conditions: two weeks
Description: Bean (BN)--Phaseolus vulgaris var. Black Valentine
as §1, §2
Beans: primary leaves expanded, growing point at primary leaf nodes.
as §6, §10, §11, §8, §4

Crabgrass (CG) [4] = test: Pre-emergence herbicide test, crabgrass; type: in vivo, Digitaria sanguinalis; conditions: two weeks
Description: as §5, §1, §6, §10, §11, §8, §4

Turnip (TP) [5] = test: Pre-emergence herbicide test, turnip; type: in vivo, Brassica sp.; conditions: two weeks
Description: (§12) Turnip (TP)--Brassica sp.
as §1, §6, §7, §8, §4

Cotton (CT) [6] = test: Post-emergence herbicide test, cotton; type: in vivo, Gossypium hirsutum var. DPL smooth leaf; conditions: two weeks
Description: as §9, §1, §2
cotton: first true leaf 1" in length; expanded cotyledons.
as §6, §10, §11, §8, §4

Turnip (TP) [7] = test: Post-emergence herbicide test, turnip; type: in vivo, Brassica sp.; conditions: two weeks
Description: as §12, §1, §2
Pigweed and turnips: 1 or 2 true leaves above visible cotyledons.
as §6, §7, §8, §4

CNC(=O)Nc1nnc(SC)s1 [Example 26]
herbicidal effectiveness and selectivity (in words) [1]: extremely effective

CNC(=O)Nc1nnc(-c2cccc(C(F)(F)F)c2)s1 [Example 73]
pest or weed control at 4483.4 g/ha (Crabgrass (CG) [2]; Digitaria sanguinalis, post-emergence, 336 h, 4 lb/acre): 80% | pest or weed control at 4483.4 g/ha (Cotton (CT) [3]): 10%

CSc1nnc(N(C)C(=O)N(C)C)s1 [Example 5, 1,1,3-trimethyl-3-[5-methylthio-2-(1,3,4-thiadiazolyl)]urea]
herbicidal effectiveness and selectivity (in words) [1]: extremely effective

O=C(Nc1ccc(Cl)c(Cl)c1)Nc1nnc(C(F)(F)F)s1 [Example 16]
herbicidal effectiveness and selectivity (in words) [1]: more selective

CCN(C(=O)NC)c1nnc(C(F)(F)F)s1 [Example 37]
pest or weed control at 4483.4 g/ha (Corn (CN)): 30% | herbicidal effectiveness and selectivity (in words) [1]: extremely effective

CNC(=O)Nc1nnc(COC)s1 [Example 25]
herbicidal effectiveness and selectivity (in words) [1]: more selective

NC(=O)Nc1nnc(C(F)(F)F)s1 [Example 70]
POST-EMERGENCE ACTIVITY, % CONTROL (Bean (BN); 5 lb/acre): 50% | POST-EMERGENCE ACTIVITY, % CONTROL (Bean (BN); 10 lb/acre): 50% | PRE-EMERGENCE ACTIVITY, % CONTROL (Crabgrass (CG) [4]; 5 lb/acre): 10% | PRE-EMERGENCE ACTIVITY, % CONTROL (Crabgrass (CG) [4]; 10 lb/acre): 10% | PRE-EMERGENCE ACTIVITY, % CONTROL (Turnip (TP) [5]; 5 lb/acre): 10% | PRE-EMERGENCE ACTIVITY, % CONTROL (Turnip (TP) [5]; 10 lb/acre): 10% | POST-EMERGENCE ACTIVITY, % CONTROL (Cotton (CT) [6]; 5 lb/acre): 20% | POST-EMERGENCE ACTIVITY, % CONTROL (Cotton (CT) [6]; 10 lb/acre): 20% | POST-EMERGENCE ACTIVITY, % CONTROL (Crabgrass (CG) [2]; 5 lb/acre): 20% | POST-EMERGENCE ACTIVITY, % CONTROL (Crabgrass (CG) [2]; 10 lb/acre): 20% | POST-EMERGENCE ACTIVITY, % CONTROL (Turnip (TP) [7]; 5 lb/acre): 80% | POST-EMERGENCE ACTIVITY, % CONTROL (Turnip (TP) [7]; 10 lb/acre): 80%

C=CCNC(=O)Nc1nnc(C(F)(F)F)s1 [Example 12]
herbicidal effectiveness and selectivity (in words) [1]: control post-emergence growth, while have little effect in regard to pre-emergence

CCSc1nnc(N(C)C(=O)NC)s1 [Example 89]
pest or weed control at 560.425 g/ha (Bean (BN); Phaseolus vulgaris, post-emergence, 336 h, 0.5 lb/acre): 100%

CNC(=O)Nc1nnc(CC(C)C)s1 [Example 21]
herbicidal effectiveness and selectivity (in words) [1]: more selective

From patent US4599424A, “5-substituted thiadiazole ureas and their use as herbicides” (priority 1979, dated 1986)
